Data set [1] relates to GI enzymes (pepsin and pancreatin). Kind of data set: In vitro gastrointestinal (GI) digestion of synthetic peptides, with ACE inhibitory activity and α-amino group content before and after. In kind it is in vitro ADME. Conditions: pepsin pH 2.0, 37° C., 1 h, then pancreatin pH 7.5, 37° C., 2 h (FIG. 6). Here is the method: It is necessary for ACE inhibitory peptides to retain its activity in GI tract so that it can be absorbed into the bloodstream, where the peptide inhibitors can show their hypotensive effect. In vitro gastrointestinal digestion provides an easy process to imitate antihypertensive activity of peptides under oral administration. […] In vitro GI digestion was simulated according to the method of Zhu et al. (2008) with some modifications. One milligram of each sample was dissolved in 0.5 ml of 0.1 M KCl-HCl, and the pH was adjusted to 2.0 with 6 M HCl. Pepsin (1% enzyme/substrate, w/w) was added, and the mixture was incubated in a shaking water bath at 37° C. for 1 h, and the pH was then adjusted to pH 7.5. […] ACE inhibitory activity and α-amino groups content of the peptides before and after in vitro GI digestion were measured. […]
ACE inhibitory activity assay was carried out according to the methods of Cushman and Cheung (1971) and Wu et al. (2002) with some modifications. […] Absorbance was measured at 228 nm. The percentage of ACE inhibition was calculated as follows: […]
Content of α-amino groups was performed according to Adler-Nissen (1979). […] The mixture was left at room temperature for 30 min before an absorbance at 420 nm was monitored. […] The content of α-amino groups was expressed as leucine equivalents.

Data set [2] deals with angiotensin I-converting enzyme (ACE) (Homo sapiens, UniProt P12821). Kind of data set: ACE inhibitory activity assay (HHL substrate, hippuric acid absorbance at 228 nm). In kind it is biochemical. Conditions: for inhibition at 1000 µg/mL: synthetic peptides at 1 mg/ml. Here is the method: ACE inhibitory activity assay was carried out according to the methods of Cushman and Cheung (1971) and Wu et al. (2002) with some modifications. A reaction mixture containing 50 µl of hydrolysate or peptides, 150 µl of 8.3 mM Hippuryl-L-histidyl-L-leucine (HHL), and 50 µl of ACE (25 mU/ml) was incubated at 37° C. for 1 h. Subsequently, 250 µl of 1 M HCl was added to terminate the reaction. The released hippuric acid (HA) was extracted by adding 2.5 ml ethyl acetate, and the mixture was mixed with a vortex for 1 min and left at room temperature for 1 h. Then, 2 ml of the upper layer was transferred into beaker and dried at 80° C. to remove ethyl acetate. Finally, 1 ml of deionized water was added to dissolve the HA. Absorbance was measured at 228 nm. The percentage of ACE inhibition was calculated as follows: […]
Chain of angiotensin I-converting enzyme (ACE) (P12821 30-1306, species assumed): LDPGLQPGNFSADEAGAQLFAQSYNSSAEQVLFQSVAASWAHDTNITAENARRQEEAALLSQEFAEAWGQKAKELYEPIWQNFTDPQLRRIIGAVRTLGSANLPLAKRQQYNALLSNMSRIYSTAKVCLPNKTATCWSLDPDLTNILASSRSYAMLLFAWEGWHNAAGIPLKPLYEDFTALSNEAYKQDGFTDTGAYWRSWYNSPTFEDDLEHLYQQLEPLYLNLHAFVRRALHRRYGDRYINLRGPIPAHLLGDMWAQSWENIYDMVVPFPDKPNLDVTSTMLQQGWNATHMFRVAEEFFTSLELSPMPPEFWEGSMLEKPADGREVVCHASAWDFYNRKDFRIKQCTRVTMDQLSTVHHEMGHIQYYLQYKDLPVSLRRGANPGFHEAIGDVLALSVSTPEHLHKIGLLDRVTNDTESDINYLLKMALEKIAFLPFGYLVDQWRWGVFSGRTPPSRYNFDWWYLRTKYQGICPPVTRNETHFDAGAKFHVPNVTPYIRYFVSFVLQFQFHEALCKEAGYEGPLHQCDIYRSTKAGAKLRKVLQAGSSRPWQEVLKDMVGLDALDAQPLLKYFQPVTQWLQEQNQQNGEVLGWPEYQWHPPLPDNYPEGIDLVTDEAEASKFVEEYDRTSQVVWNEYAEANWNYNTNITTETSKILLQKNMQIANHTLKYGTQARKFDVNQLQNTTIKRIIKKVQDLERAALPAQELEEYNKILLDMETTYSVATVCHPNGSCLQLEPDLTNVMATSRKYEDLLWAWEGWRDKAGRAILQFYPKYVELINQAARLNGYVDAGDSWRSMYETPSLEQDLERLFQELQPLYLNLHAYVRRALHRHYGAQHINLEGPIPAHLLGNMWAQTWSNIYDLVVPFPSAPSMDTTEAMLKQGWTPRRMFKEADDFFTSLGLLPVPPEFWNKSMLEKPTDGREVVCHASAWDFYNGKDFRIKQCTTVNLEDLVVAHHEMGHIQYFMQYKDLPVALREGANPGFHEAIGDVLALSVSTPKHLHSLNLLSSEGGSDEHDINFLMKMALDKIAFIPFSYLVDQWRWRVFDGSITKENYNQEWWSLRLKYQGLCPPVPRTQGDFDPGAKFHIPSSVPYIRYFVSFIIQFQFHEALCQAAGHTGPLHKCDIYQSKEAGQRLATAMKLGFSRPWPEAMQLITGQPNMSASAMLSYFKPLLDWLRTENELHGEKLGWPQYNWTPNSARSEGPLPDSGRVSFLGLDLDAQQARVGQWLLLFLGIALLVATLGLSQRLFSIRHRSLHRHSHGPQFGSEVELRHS
where A is the absorbance at 228 nm of a reaction containing ACE without hydrolysate; B is the absorbance at 228 nm of a reaction containing ACE previously inactivated by adding HCl in the absence of hydrolysate; C is the absorbance at 228 nm of a reaction in the presence of ACE and hydrolysate; and D is the absorbance at 228 nm of a reaction containing ACE previously inactivated by adding HCl in the presence of hydrolysate. The IC50 was defined as the concentration of inhibitor required to inhibit 50% of the ACE activity. Specific inhibitory activity was calculated as ACE inhibition (%) divided by total peptide content (mg).

In a further data set the target is ACE (Homo sapiens, UniProt P12821). To be noted: Wu et al. (2008); Balti et al. (2010); read-out: IC50 (ACE inhibition); cited from earlier work.
Chain of ACE (P12821 30-1306, species assumed): as above
The mark [3] stands for this setting: synthesized in silico GI digestion products of VR9.

Marks after values point to notes of the source that are not given here. No end group written: not given here.

For the substance VIYSRINCR [VIYSRINCR], in data set [1], the “Decrease of ACE inhibitory activity after GI digestion” value was approximately 14%. In addition, in data set [2], the IC50 is 240 nM and the inhibition at 1000 µg/mL was determined as 97.02 ± 0.46%.

Regarding VYAP, the IC50 on ACE was 6100 nM.

Turning to INCR, the “ACE inhibitory activity (%) At 1 µg/ml” value in data set [2] (1 µg/ml, synthesized in silico GI digestion products of VR9) is 29.10 ± 1.06^c %. Further, the “ACE inhibitory activity (%) At 1 mg/ml” value in data set [2] (setting [3]) is listed as 100.79 ± 0.71^c %.

Consider NLLPHR [NLLPHR], for which the “Decrease of ACE inhibitory activity after GI digestion” value in data set [1] is “approximately 30%”. For the same substance, in data set [2], inhibition was half-maximal at 1240 nM (IC50) and the inhibition at 1000 µg/mL was found to be 94.9 ± 0.97%.

As for “VIY [in silico GI digestion product of VR9]”, the “ACE inhibitory activity (%) At 1 mg/ml” value in data set [2] (setting [3]) is 18.51 ± 1.12^a %.

On to VSVVQYSR [VSVVQYSR], for which, in data set [2], it took 950 nM to reach half-maximal inhibition (IC50) and the inhibition at 1000 µg/mL was 94.15 ± 0.2%.

Turning to VIIF, the IC50 at ACE was 8700 nM.

As for MAW, the IC50 on ACE is 16300 nM.

Values taken from US20230365624A1, “NOVEL ANGIOTENSIN I-CONVERTING ENZYME (ACE) INHIBITORY PEPTIDES” (Thai Union Group Public Company Limited, priority 2020, published 2023).
